Results on twelve compounds are retold here after ChEMBL document CHEMBL1136459, “New antibacterial tetrahydro-4(2H)-thiopyran and thiomorpholine S-oxide and S,S-dioxide phenyloxazolidinones” (Bioorg Med Chem Lett, 2003).

What is called ED50 is the midpoint of the dose-response relation. High values mean a need for a large dose, low ones an effect at a small dose.

One test concerns Enterococcus faecium. Kind of test: In vitro antibacterial activity against vancomycin-resistant Enterococcus faecium UC12712 (VRE).
Test [1] deals with Staphylococcus aureus. Kind of test: In vitro antibacterial activity against linezolid-resistant Staphylococcus aureus ATCC 29213 (LRSA). In kind it is functional.
Test [2] deals with Staphylococcus epidermidis. Kind of test: In vitro antibacterial activity against Staphylococcus epidermidis strains UC12084, 30031, and CDC-CNS90 (SE); range is 1-2. It counts as functional.
Test [3] deals with Staphylococcus aureus. Nature of the test: In vitro antibacterial activity against Staphylococcus aureus strains UC12673, UC9213, ATCC 29213, and UC9271 (SA); range is 2-8. In kind it is functional.
In test [4] the test system is Haemophilus influenzae. Nature of the test: In vitro antibacterial activity against Haemophilia influenzae strains ATCC 30063 and ATCC 31517. It counts as functional.
In test [5] the test system is Moraxella catarrhalis. Kind of test: In vitro antibacterial activity against Moraxella catarrhalis strains 30607 and 30603 (MC); range is 8-16. It counts as functional.
The subject of test [6] is Staphylococcus aureus. Kind of test: In vitro antibacterial activity against Staphylococcus aureus strains UC12673, UC9213, ATCC 29213, and UC9271 (SA); range is 4-8. It counts as functional.
For test [7], the system named is Moraxella catarrhalis. Kind of test: In vitro antibacterial activity against Moraxella catarrhalis strains 30607 and 30603 (MC). In kind it is functional.
The subject of test [8] is Staphylococcus aureus. Nature of the test: In vitro antibacterial activity against Staphylococcus aureus strains UC12673, UC9213, ATCC 29213, and UC9271 (SA). It counts as functional.
The subject of test [9] is Streptococcus pneumoniae. Nature of the test: In vitro antibacterial activity against Streptococcus pneumoniae strains ATCC6305 and 31573 (SPN).
Test [10] has as its system Staphylococcus epidermidis. Nature of the test: In vitro antibacterial activity against Staphylococcus epidermidis strains UC12084, 30031, and CDC-CNS90 (SE); range is 0.5-1. It counts as functional.
Test [11] concerns Staphylococcus epidermidis. Nature of the test: In vitro antibacterial activity against Staphylococcus epidermidis strains UC12084, 30031, and CDC-CNS90 (SE); range is 4-8. In kind it is functional.
Test [12] deals with Streptococcus pneumoniae. Nature of the test: In vitro antibacterial activity against Streptococcus pneumoniae strains ATCC 6305 and 31573 (SPN); range is 4-8.
Test [13] relates to Haemophilus influenzae. Kind of test: In vitro antibacterial activity against Haemophilia influenzae strains 30063 and ATCC 31517 (HI); range is 32-64. It counts as functional.
Test [14] has as its system Staphylococcus aureus. Kind of test: In vitro antibacterial activity against Staphylococcus aureus strains UC12673, UC9213, ATCC 29213, and UC9271 (SA); range is 8-32. In kind it is functional.
Test [15] has as its system Haemophilus influenzae. Kind of test: In vitro antibacterial activity against Haemophilia influenzae strains 30063 and ATCC 31517 (HI); range is 4-8. In kind it is functional.
The subject of test [16] is Haemophilus influenzae. Nature of the test: In vitro antibacterial activity against Haemophilia influenzae strains 30063 and ATCC 31517 (HI); range is 4-16. In kind it is functional.
Test [17] has as its system Haemophilus influenzae. Kind of test: In vitro antibacterial activity against Haemophilia influenzae strains 30063 and ATCC 31517 (HI); range is 8-32. In kind it is functional.
The test system of test [18] is Staphylococcus epidermidis. Nature of the test: In vitro antibacterial activity against Staphylococcus epidermidis strains UC12084, 30031, and CDC-CNS90 (SE); range is 2-4. It counts as functional.
Test [19] relates to Moraxella catarrhalis. Kind of test: In vitro antibacterial activity against Moraxella catarrhalis strains 30607 and 30603 (MC); range is 32->64. In kind it is functional.
Test [20] concerns Staphylococcus epidermidis. Kind of test: In vitro antibacterial activity against Staphylococcus epidermidis strains UC12084, 30031, and CDC-CNS90 (SE). It counts as functional.
For test [21], the system named is Staphylococcus aureus. Nature of the test: In vitro antibacterial activity against Staphylococcus aureus strains UC12673, UC9213, ATCC 29213, and UC9271 (SA); range is 16-32. It counts as functional.
In test [22] the test system is Staphylococcus aureus. Kind of test: In vitro antibacterial activity against Staphylococcus aureus strains UC12673, UC9213, ATCC 29213, and UC9271 (SA); range is 2-4. It counts as functional.
In test [23] the test system is Haemophilus influenzae. Nature of the test: In vitro antibacterial activity against Haemophilia influenzae strains 30063 and ATCC 31517 (HI); range is 32->64. In kind it is functional.
Test [24] has as its system Streptococcus pneumoniae. Kind of test: In vitro antibacterial activity against Streptococcus pneumoniae strains ATCC 6305 and 31573 (SPN); range is 0.5-1.
In another test the test system is Mus musculus. Kind of test: In vivo Efficacy of compound after peroral administration in mouse. Particulars: po. In kind it is functional.

≈ marks a conversion by molar mass, not a printed value.

On to `O=C(/C=C/c1ccc(O)cc1)NC[C@H]1CN(c2ccc(C3CC[S+]([O-])CC3)c(F)c2)C(=O)O1` (some centres undefined), for which the MIC against Enterococcus faecium was 4 µg/mL (≈ 8.46 µM); against Staphylococcus aureus [1], above 64 µg/mL; in test [2], 1 µg/mL (≈ 2.12 µM); against Staphylococcus aureus [3], 2 µg/mL (≈ 4.23 µM); with Haemophilus influenzae [4], above 64 µg/mL; against Moraxella catarrhalis [5], 8 µg/mL (≈ 16.9 µM).

On to `CC(=O)Nc1ccc(/C=C/C(=O)NC[C@H]2CN(c3ccc(N4CC[S+]([O-])CC4)c(F)c3)C(=O)O2)cc1`, for which the MIC with Staphylococcus aureus [6] is 4 µg/mL (≈ 7.77 µM); with Moraxella catarrhalis [7], 16 µg/mL (≈ 31.1 µM); against Enterococcus faecium, 8 µg/mL (≈ 15.5 µM); in the test with Staphylococcus aureus [1] it was above 64 µg/mL; in test [2], 1 µg/mL (≈ 1.94 µM); in the test with Haemophilus influenzae [4], above 64 µg/mL.

Turning to `CC(=O)NC[C@H]1CN(c2ccc(C3CC[S+]([O-])CC3)c(F)c2)C(=O)O1` (some centres undefined), the MIC in the test with Staphylococcus aureus [8] was 4 µg/mL (≈ 10.9 µM); against Enterococcus faecium, 2 µg/mL (≈ 5.43 µM); against Staphylococcus aureus [1], 64 µg/mL (≈ 174 µM); in the test on Streptococcus pneumoniae [9], 0.5 µg/mL (≈ 1.36 µM); with Haemophilus influenzae [4], 8 µg/mL (≈ 21.7 µM); with Moraxella catarrhalis [5], above 8 µg/mL. The MIC in [10] came to 0.5 µg/mL (≈ 1.36 µM).

With `O=C(NC[C@H]1CN(c2ccc(N3CCS(=O)(=O)CC3)c(F)c2)C(=O)O1)c1csnn1`, the MIC is 32 µg/mL (≈ 70.3 µM) against Moraxella catarrhalis [7]; 4 µg/mL (≈ 8.78 µM) in test [11]; 4 µg/mL (≈ 8.78 µM) in the test on Streptococcus pneumoniae [12]; 32 µg/mL (≈ 70.3 µM) in the test with Haemophilus influenzae [13]; 16 µg/mL (≈ 35.1 µM) in the test with Enterococcus faecium; 32 µg/mL (≈ 70.3 µM) in the test on Staphylococcus aureus [1]. In the test with Staphylococcus aureus [14], this compound showed an MIC of 8 µg/mL (≈ 17.6 µM).

Regarding `CC(=O)NC[C@H]1CN(c2ccc(N3CC[S+]([O-])CC3)c(F)c2)C(=O)O1`, the MIC in the test with Staphylococcus aureus [6] is 4 µg/mL (≈ 10.8 µM); in the test with Moraxella catarrhalis [7], 4 µg/mL (≈ 10.8 µM); against Enterococcus faecium, 2 µg/mL (≈ 5.41 µM); in the test on Staphylococcus aureus [1], above 64 µg/mL; in test [2] it was 1 µg/mL (≈ 2.71 µM); against Streptococcus pneumoniae [9], 1 µg/mL (≈ 2.71 µM). Moreover, in the test with Haemophilus influenzae [15], the MIC was above 4 µg/mL.

In the case of `O=C(CF)NC[C@H]1CN(c2ccc(C3CCS(=O)(=O)CC3)c(F)c2)C(=O)O1`, the MIC in the test on Staphylococcus aureus [8] is 2 µg/mL (≈ 4.97 µM); against Moraxella catarrhalis [7], above 8 µg/mL; against Haemophilus influenzae [16] it was above 4 µg/mL; with Enterococcus faecium it was 2 µg/mL (≈ 4.97 µM); in the test with Staphylococcus aureus [1], 64 µg/mL (≈ 159 µM); in the test on Streptococcus pneumoniae [9] it was 0.5 µg/mL (≈ 1.24 µM). Also, the MIC in test [10] worked out at 0.5 µg/mL (≈ 1.24 µM).

Take `O=C1O[C@@H](CNC(=O)C(F)(F)F)CN1c1ccc(C2CCS(=O)(=O)CC2)c(F)c1`: the MIC is 8 µg/mL (≈ 18.2 µM) in the test with Moraxella catarrhalis [7]; above 8 µg/mL against Haemophilus influenzae [17]; 2 µg/mL (≈ 4.56 µM) in test [18]; 8 µg/mL (≈ 18.2 µM) with Enterococcus faecium; 64 µg/mL (≈ 146 µM) with Staphylococcus aureus [1]; 8 µg/mL (≈ 18.2 µM) in the test on Staphylococcus aureus [14].

As to `O=C1O[C@@H](CNC(=O)C(F)(F)F)CN1c1ccc(N2CCS(=O)(=O)CC2)c(F)c1`, the MIC in the test with Moraxella catarrhalis [19] is 32 µg/mL (≈ 72.8 µM); against Enterococcus faecium, 16 µg/mL (≈ 36.4 µM); against Staphylococcus aureus [1], 16 µg/mL (≈ 36.4 µM); in test [20], 8 µg/mL (≈ 18.2 µM); with Staphylococcus aureus [21], 16 µg/mL (≈ 36.4 µM); against Haemophilus influenzae [4] it was at least 64 µg/mL.

For the compound `O=C(/C=C/c1ccc(Cl)cc1)NC[C@H]1CN(c2ccc(N3CC[S+]([O-])CC3)c(F)c2)C(=O)O1`, the MIC came to 8 µg/mL (≈ 16.3 µM) in the test with Moraxella catarrhalis [7]; 2 µg/mL (≈ 4.07 µM) in the test with Enterococcus faecium; 8 µg/mL (≈ 16.3 µM) against Staphylococcus aureus [1]; 2 µg/mL (≈ 4.07 µM) with Staphylococcus aureus [22]; 1 µg/mL (≈ 2.03 µM) in test [20]; 32 µg/mL (≈ 65 µM) in the test with Haemophilus influenzae [23].

`CC(=O)NC[C@H]1CN(c2ccc(N3CCS(=O)(=O)CC3)c(F)c2)C(=O)O1`: the MIC in the test with Staphylococcus aureus [8] stood at 4 µg/mL (≈ 10.4 µM); in the test with Moraxella catarrhalis [7] it was 4 µg/mL (≈ 10.4 µM); against Streptococcus pneumoniae [24], 0.5 µg/mL (≈ 1.3 µM); against Enterococcus faecium it was 2 µg/mL (≈ 5.19 µM); with Staphylococcus aureus [1], 64 µg/mL (≈ 166 µM); in [20] it was 1 µg/mL (≈ 2.59 µM). Also, in the test on Haemophilus influenzae [15], the MIC was found to be 4 µg/mL (≈ 10.4 µM).

For `CSCC(=O)NC[C@H]1CN(c2ccc(C3CCS(=O)(=O)CC3)c(F)c2)C(=O)O1`, the MIC with Staphylococcus aureus [6] turned out to be 4 µg/mL (≈ 9.29 µM); against Moraxella catarrhalis [7], 8 µg/mL (≈ 18.6 µM); against Haemophilus influenzae [17] it was 8 µg/mL (≈ 18.6 µM); in the test with Enterococcus faecium, 4 µg/mL (≈ 9.29 µM); against Staphylococcus aureus [1] it was 64 µg/mL (≈ 149 µM); in test [20] it was 2 µg/mL (≈ 4.65 µM).

As for `O=C(CF)NC[C@H]1CN(c2ccc(C3CC[S+]([O-])CC3)c(F)c2)C(=O)O1` (some centres undefined), the MIC against Moraxella catarrhalis [7] was determined as 8 µg/mL (≈ 20.7 µM); against Streptococcus pneumoniae [24], 0.5 µg/mL (≈ 1.29 µM); against Enterococcus faecium, 4 µg/mL (≈ 10.4 µM); in the test with Staphylococcus aureus [1], 32 µg/mL (≈ 82.8 µM); with Staphylococcus aureus [22], 2 µg/mL (≈ 5.18 µM); in test [2], 1 µg/mL (≈ 2.59 µM). The MIC with Haemophilus influenzae [15] amounted to 4 µg/mL (≈ 10.4 µM). Besides, the median effective dose (ED50) in the test with Mus musculus was 3.75 mg/kg.
